The results in this text go back to patent US20250114368A1, “COMPOSITIONS AND METHODS RELATING TO PEDIATRIC NEUROMUSCULAR DISEASES AND NEUROGENERATIVE DISORDERS” (Ann and Robert H. Lurie Children's Hospital of Chicago, priority 2023, published 2025).

“Also recorded” adds a separate entry of the source.

Data set [1] has as its system human SMA iPSC-derived motor neurons. Briefly: Degeneration of human SMA iPSC-derived motor neurons (TuJ1 and Isl1-positive motor neurons as percentage of DAPI positive cells). It counts as cell-based. The note with it: week 3 to week 6 in culture. From the text: FIGS. 8A-8M: Inhibition of Cdk5 signaling pathway decreases the degeneration of human SMA iPSC-derived motor neurons. (A-L) Immunostaining of human iPSC-derived motor neurons with antibodies recognizing neuronal marker TuJ1 (green in A-L), motor neuron marker Isl1 (red in A-L), and nucleus marker DAPI (blue in A-L). […] (M) Quantification of TuJ1 and Isl1-positive motor neurons as a percentage of all DAPI positive cells in a human iPSC model of SMA treated with inhibitors of Cdk5 signaling. […] Data are from four independent experiments and are mean±SEM. ** P<0.01, *** p<0.001, **** P<0.0001, Student's t test.
(§1) Human SMA iPSC and Mouse Motor Neuron Culture. Human iPSCs were generated and differentiated as described in the Examples. Briefly, primary fibroblasts were isolated from de-identified type I SMA patients and their unaffected relatives, infected with lentiviral constructs expressing OCT4, SOX2, NANOG, and LIN28 or episomally expressed reprogramming plasmids to generate iPSCs. Retinoic acid, sonic hedgehog, cAMP, ascorbic acid, brain-derived neurotrophic factor (BDNF) and glial cell line-derived neurotrophic factor (GDNF) were used to induce iPSC spheres to differentiate into motor neurons. […] Cell death was detected by the in situ cell death detection TMR red TUNEL (Terminal Transferase dUTP Nick End Labeling) kit. […]

The test system of data set [2] is SMA non-integrating iPSC-derived motor neurons. Briefly: Motor neuron degeneration in non-integrating iPSC SMA model (Isl1+ and TuJ1+ motor neurons as percentage of DAPI-positive cells). It is filed as cell-based, human. As to conditions: 10 μM. From the text:
FIGS. 9A-C: (A) The increase of Cdk5 kinase activity in E18.5 SMA mouse spinal cord is not significant. Endogenous Cdk5 was immunoprecipitated from spinal cord lysates of E18.5 WT and SMA mice and measured kinase activity of phosphorylating Histone H1 with ^32P-γ-ATP. The same levels of Cdk5 and purified Histone H1 used in kinase assay reactions were monitored by Western blotting. Data are mean±SEM, Student's t test (n=12, P=0.0875). […] Endogenous Cdk5 was immunoprecipitated from motor neurons differentiated from WT and SMA non-integrating iPSCs. Kinase activities were quantified by the phosphorylation of Histone H1 with ^32P-γ-ATP. The same levels of Cdk5 and Histone H1 were monitored by Western blot. Data are mean±SEM, Student's t test (n=12, P<0.0001). […] Calpain inhibitor Calpeptin (10 μM) was applied to WT and SMA non-integrating iPSC-derived motor neurons. The number of Isl1+ and TuJ1+motor neurons as a percentage of all DAPI-positive cells was quantified from 1490 motor neurons in four independent experiments and are mean±SEM. ** p=0.0045, Student's t test.
Human SMA iPSC and Mouse Motor Neuron Culture. Human iPSCs were generated and differentiated as described in the Examples. […] Cell death was detected by the in situ cell death detection TMR red TUNEL (Terminal Transferase dUTP Nick End Labeling) kit. […]

The test system of data set [3] is SMA iPSC motor neurons. Briefly: iPSC motor neuron degeneration measured by choline acetyltransferase (ChAT) staining. It counts as cell-based, human. As to conditions: 10 μM. The method, then: (§2) Calpeptin (10 μM) (A) was used to inhibit calpain activity, and 300 nM BML259 (B) was used to inhibit Cdk5 activity in control and SMA iPSC motor neurons. Data are from four independent experiments and are mean±SEM. ** p<0.01, *** p<0.001, Student's t test. […] Levels of different mRNA in each sample are calculated as relative to gapdh mRNA. The level of gapdh mRNA is presented as relative to the average of four samples. The measurement of each sample was repeated three times and four sets of mice were used. Results are mean±SEM. ** p<0.01, Student's t test.
as §1

The subject of data set [4] is SMA motor neuron. Briefly: Dosage effect of BML259 on primary mouse motor neurons: toxic effect (cell morphology and viability, bright field microscope). The note with it: two days. It is filed as cell-based. The source says: (§3) Human SMA iPSC and Mouse Motor Neuron Culture. Human iPSCs were generated and differentiated as described in the Examples. Briefly, primary fibroblasts were isolated from de-identified type I SMA patients and their unaffected relatives, infected with lentiviral constructs expressing OCT4, SOX2, NANOG, and LIN28 or episomally expressed reprogramming plasmids to generate iPSCs. Retinoic acid, sonic hedgehog, cAMP, ascorbic acid, brain-derived neurotrophic factor (BDNF) and glial cell line-derived neurotrophic factor (GDNF) were used to induce iPSC spheres to differentiate into motor neurons. Primary neurons from mouse spinal cords were cultured in Neurobasal (Life Technologies) supplemented with B27 (Life Technologies) as described. Briefly, spinal cords from E12.5 mouse embryos were dissected out and dissociated with 0.25% trypsin. After enriching motor neurons with Optiprep density gradient centrifugation and BSA cushion, cells were seeded on glass cover slips coated with 20 μg/ml Poly-L-Lysine (PLL) (Sigma) and 8 μg/ml Laminin (Sigma), and grown in the presence of […] (PeproTech). Cell death was detected by the in situ cell death detection TMR red TUNEL (Terminal Transferase dUTP Nick End Labeling) kit. Cdk5 inhibitor BML259 (300 nM) (Cayman Chemical) and calpain inhibitor Calpeptin (10 μM) (Tocris Bioscience) were applied from week 3 to 6 into iPSC motor neuron medium to inhibit Cdk5 signaling.
(§4) Different concentrations of Cdk5 inhibitor BML259 were applied on primary motor neurons from wild type and SMA mice. After two days, treated and untreated cells were compared to identify potential toxic effects of causing additional cell death by checking cell morphology and viability using a bright field microscope.

Data set [5] relates to WT motor neuron. The description is as above. It counts as cell-based. As to conditions: two days.
From the text: as §3, §4

Data set [6] deals with SMA motor neurons. Briefly: TUNEL staining of degenerating primary spinal motor neurons cultured from Δ7 SMA mice. It counts as cell-based, mouse. As to conditions: 300 nM applied at 3 DIV, assayed on 6 DIV. The source says:
FIGS. 4A-4D: Mitigating aberrant Cdk5 activation ameliorates the degeneration of motor neurons from SMA mice. (A-B) Primary spinal motor neurons from SMA mice cultured 6 days in vitro (6 DIV) were stained by antibodies recognizing motor neuron marker Isl1 (magenta in A, B) and pan-neuronal marker TuJ1 (green in A). DAPI nuclear staining marks all cells in the culture. (C) Western blot analysis of Cdk5 knockdown in motor neurons treated with shRNA. […] Motor neurons were infected with lentivirus on 4 DIV and cultured for another 3 days before Western blot analysis. Two examples of Cdk5 shRNA knockdown were shown, with the expression of GAPDH as loading control. (D) Quantification of TUNEL+ degenerating motor neurons from WT and SMA mice. […]
Human SMA iPSC and Mouse Motor Neuron Culture. […] Cell death was detected by the in situ cell death detection TMR red TUNEL (Terminal Transferase dUTP Nick End Labeling) kit. […]
Mitigating Aberrant Cdk5 Activation Reduces the Degeneration of SMA Mouse Motor Neurons. Experiments were conducted during development of embodiments herein to determine whether reducing aberrant Cdk5 activation in SMA conditions serve to ameliorate motor neuron degeneration; the degeneration of motor neurons cultured from Δ7 SMA mice and control mice by TUNEL staining was monitored. […]

In data set [7] the test system is SMA iPSC motor neurons. Briefly: iPSC motor neuron degeneration measured by TUNEL. It counts as cell-based, human. The note with it: 300 nM. The method, then: as §2, §1

For the compound `CCCC[C@@H](C=O)NC(=O)[C@H](CC(C)C)NC(=O)OCc1ccccc1` [Calpeptin], the “Degeneration of motor neurons (TuJ1 and Isl1-positive, % of DAPI positive cells) in human SMA iPSC culture” value in data set [1] (10 μM) is reported as “alleviated the degeneration of Isl1-positive motor neurons; also recorded: significantly reduces the degeneration of motor neurons”. For the same compound, the “Motor neuron degeneration in non-integrating iPSC SMA model” value in data set [2] is reported as “significantly reduces motor neuron degeneration”. In addition, the “iPSC motor neuron degeneration by ChAT staining” value in data set [3] is listed as “reduces iPSC motor neuron degeneration”.
As to `CC(C)c1cnc(NC(=O)Cc2ccccc2)s1` [BML259, N-(5-isopropyl-thiazol-2-yl)phenylacetamide], the “Toxic Effect on SMA motor neuron” value in data set [4] (50 nM) is “no”; in data set [4] (150 nM), “no”; in data set [4] (300 nM), “no”; in data set [4] (450 nM), “strong”; in data set [4] (600 nM), “very strong”. In addition, the “Toxic Effect on WT motor neuron” value is “no” in data set [5] (50 nM); “no” in data set [5] (150 nM); “no” in data set [5] (300 nM); “weak” in data set [5] (450 nM); “strong” in data set [5] (600 nM). For the same compound, the “TUNEL+ degenerating motor neurons from SMA mice” value in data set [6] was “significantly reduced the degeneration of SMA motor neurons”. Further, in data set [1] (300 nM), the “Degeneration of motor neurons (TuJ1 and Isl1-positive, % of DAPI positive cells) in human SMA iPSC culture” value was “alleviated the degeneration of Isl1-positive motor neurons; also recorded: significantly reduces the degeneration of motor neurons”. Moreover, the “iPSC motor neuron degeneration by TUNEL” value in data set [7] is “reduces iPSC motor neuron degeneration”.
